pEC50, pIC50, pKi: −log10 of the molar value.
Legend:
[1] = target: Voltage-gated inwardly rectifying potassium channel KCNH2 (Homo sapiens, UniProt Q12809); assay: Inhibition of hERG
[2] = Clearance in rat at 1 mg/kg, iv; type: ADME, organism-based; conditions: in vivo
in vivo = conditions: rat, po, 5 mg/kg
Description: Half life in rat at 5 mg/kg, po

[3] = Oral bioavailability in rat at 5 mg/kg; type: ADME, organism-based; conditions: in vivo
[4] = Clearance in rat at 5 mg/kg, iv; type: ADME, organism-based; conditions: in vivo
[5] = Oral bioavailability in rat; type: ADME, organism-based; conditions: in vivo
[6] = target: Sphingosine 1-phosphate receptor 2 (Homo sapiens, UniProt O95136); assay: Agonist activity at S1P2 (unknown origin) expressed in CHO cells assessed as Ca2+ activation; type: functional, cell-based
[7] = target: Phosphatidylinositol 4,5-bisphosphate 3-kinase catalytic subunit alpha isoform (Homo sapiens, UniProt P42336); assay: Inhibition of PI3Kalpha (unknown origin) by kinase profiling assay
fMet-Leu-Phe receptor = target: T1, fMet-Leu-Phe receptor (Homo sapiens, UniProt P21462); assay: Inhibition of human FPR expressed in human U-937 cells by fluorescence based ligand binding assay; type: cell-based
T1 sequence (P21462 whole entry): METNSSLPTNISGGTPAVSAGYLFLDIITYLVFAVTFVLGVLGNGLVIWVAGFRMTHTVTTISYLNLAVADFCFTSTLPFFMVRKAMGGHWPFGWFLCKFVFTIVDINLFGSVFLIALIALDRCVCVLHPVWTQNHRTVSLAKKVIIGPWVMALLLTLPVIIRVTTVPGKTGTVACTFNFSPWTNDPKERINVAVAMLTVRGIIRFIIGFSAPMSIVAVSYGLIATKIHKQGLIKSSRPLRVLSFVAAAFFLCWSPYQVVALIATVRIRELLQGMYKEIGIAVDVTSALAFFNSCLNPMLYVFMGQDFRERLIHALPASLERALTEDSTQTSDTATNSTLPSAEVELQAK

[8] = target: Lysophosphatidic acid receptor 1 (Homo sapiens, UniProt Q92633); assay: Antagonist activity at human LPA1 receptor expressed in CHO cells assessed as inhibition of LPA-induced calcium mobilization pretreated for 15 mins followed by LPA stimulation by FLIPR analysis; type: functional, cell-based
[9] = target: Vascular endothelial growth factor receptor 2 (Homo sapiens, UniProt P35968); assay: Inhibition of VEGFR2 (unknown origin)
[10] = target: T2, Type-1 angiotensin II receptor (Homo sapiens, UniProt P30556); assay: Binding affinity to AT1R (unknown origin) assessed as inhibition constant
T2 sequence (P30556 whole entry): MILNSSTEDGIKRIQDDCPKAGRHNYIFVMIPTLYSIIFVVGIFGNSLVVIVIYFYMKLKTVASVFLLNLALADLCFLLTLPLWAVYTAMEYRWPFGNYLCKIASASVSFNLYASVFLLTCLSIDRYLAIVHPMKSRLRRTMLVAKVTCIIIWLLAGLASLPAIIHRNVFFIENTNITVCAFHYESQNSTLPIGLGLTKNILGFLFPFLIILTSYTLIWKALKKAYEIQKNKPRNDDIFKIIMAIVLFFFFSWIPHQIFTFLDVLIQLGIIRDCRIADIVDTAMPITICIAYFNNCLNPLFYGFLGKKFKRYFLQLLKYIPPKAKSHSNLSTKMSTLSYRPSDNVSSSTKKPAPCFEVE

[11] = target: T3, Platelet-derived growth factor receptor beta (Homo sapiens, UniProt P09619); assay: Inhibition of PDGFRbeta (unknown origin) by enzymatic assay
[12] = Metabolic stability in Sprague-Dawley rat assessed as half life; type: ADME
[13] = Half life in rat; type: ADME; conditions: in vivo
[14] = target: T3, Platelet-derived growth factor receptor beta; assay: Inhibition of glutathione S-transferase fused PDGFbetaR (unknown origin) in 3T3 cells; type: cell-based
[15] = AUC in Sprague-Dawley rat at 10 mg/kg, po; type: ADME, organism-based; conditions: in vivo
[16] = target: T3, Platelet-derived growth factor receptor beta; assay: Inhibition of PDGFRbeta (unknown origin) by DiscoverX KINOMEscan assay

T3 sequence (P09619 whole entry): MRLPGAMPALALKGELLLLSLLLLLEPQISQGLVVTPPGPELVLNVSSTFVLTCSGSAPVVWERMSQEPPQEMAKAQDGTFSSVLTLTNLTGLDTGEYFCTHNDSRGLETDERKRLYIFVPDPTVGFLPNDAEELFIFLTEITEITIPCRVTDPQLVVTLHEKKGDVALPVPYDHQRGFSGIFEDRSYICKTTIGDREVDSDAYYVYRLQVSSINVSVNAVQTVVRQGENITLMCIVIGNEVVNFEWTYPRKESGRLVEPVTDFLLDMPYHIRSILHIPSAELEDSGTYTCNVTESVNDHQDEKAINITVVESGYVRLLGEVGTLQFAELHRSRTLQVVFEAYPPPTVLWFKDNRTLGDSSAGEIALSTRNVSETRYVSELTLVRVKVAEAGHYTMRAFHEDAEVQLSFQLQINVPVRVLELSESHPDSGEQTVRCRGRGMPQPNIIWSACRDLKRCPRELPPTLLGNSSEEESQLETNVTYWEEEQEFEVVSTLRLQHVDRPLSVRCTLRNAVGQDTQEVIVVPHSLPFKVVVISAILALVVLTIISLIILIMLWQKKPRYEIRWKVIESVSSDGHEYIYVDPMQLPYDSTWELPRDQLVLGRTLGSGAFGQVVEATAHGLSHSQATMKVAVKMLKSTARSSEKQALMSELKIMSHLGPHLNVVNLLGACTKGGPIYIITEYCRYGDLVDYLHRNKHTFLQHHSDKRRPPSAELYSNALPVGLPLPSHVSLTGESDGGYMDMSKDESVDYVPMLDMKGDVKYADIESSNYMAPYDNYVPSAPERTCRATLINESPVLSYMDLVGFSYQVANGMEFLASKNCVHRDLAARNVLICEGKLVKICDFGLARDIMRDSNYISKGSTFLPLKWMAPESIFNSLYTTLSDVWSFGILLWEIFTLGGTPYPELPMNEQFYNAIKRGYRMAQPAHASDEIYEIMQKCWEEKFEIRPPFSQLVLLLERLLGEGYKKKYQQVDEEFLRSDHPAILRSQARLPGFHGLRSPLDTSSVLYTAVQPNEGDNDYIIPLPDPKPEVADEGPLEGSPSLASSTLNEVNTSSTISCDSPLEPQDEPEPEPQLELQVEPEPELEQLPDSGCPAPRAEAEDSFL
Chain of Vascular endothelial growth factor receptor 2 (P35968 whole entry): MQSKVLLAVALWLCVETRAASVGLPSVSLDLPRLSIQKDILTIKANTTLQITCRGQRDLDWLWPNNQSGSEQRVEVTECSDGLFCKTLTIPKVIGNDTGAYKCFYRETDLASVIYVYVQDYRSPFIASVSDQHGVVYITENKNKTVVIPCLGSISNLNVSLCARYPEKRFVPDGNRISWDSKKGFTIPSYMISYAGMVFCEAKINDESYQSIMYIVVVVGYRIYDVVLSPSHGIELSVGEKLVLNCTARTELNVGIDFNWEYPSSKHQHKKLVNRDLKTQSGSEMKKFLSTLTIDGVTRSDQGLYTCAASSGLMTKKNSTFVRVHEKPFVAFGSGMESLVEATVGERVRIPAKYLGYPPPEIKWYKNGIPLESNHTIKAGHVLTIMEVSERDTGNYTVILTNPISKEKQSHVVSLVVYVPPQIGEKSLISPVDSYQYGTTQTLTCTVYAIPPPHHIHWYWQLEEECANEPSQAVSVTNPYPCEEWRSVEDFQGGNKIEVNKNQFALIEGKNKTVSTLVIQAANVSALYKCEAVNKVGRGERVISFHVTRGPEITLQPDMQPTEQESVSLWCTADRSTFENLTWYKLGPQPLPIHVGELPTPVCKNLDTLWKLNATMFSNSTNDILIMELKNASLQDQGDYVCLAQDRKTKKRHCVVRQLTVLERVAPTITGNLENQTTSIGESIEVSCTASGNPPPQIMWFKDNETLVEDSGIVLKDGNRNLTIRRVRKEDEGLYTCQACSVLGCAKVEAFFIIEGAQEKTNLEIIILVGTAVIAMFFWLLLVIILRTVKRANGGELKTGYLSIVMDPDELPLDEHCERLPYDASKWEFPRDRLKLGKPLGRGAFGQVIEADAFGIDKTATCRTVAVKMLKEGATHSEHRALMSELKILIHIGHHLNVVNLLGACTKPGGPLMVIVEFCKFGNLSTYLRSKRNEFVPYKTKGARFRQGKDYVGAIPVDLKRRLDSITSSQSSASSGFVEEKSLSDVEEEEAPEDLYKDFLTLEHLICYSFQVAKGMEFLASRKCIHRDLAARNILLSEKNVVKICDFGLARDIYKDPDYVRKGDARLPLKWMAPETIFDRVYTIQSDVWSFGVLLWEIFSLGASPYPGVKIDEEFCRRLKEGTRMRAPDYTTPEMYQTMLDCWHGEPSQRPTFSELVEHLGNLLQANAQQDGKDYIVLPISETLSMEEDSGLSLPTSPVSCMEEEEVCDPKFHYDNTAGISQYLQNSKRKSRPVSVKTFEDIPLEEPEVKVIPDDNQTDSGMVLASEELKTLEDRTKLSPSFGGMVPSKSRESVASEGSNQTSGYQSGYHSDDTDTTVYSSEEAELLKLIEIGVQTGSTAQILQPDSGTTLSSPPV
Chain of Phosphatidylinositol 4,5-bisphosphate 3-kinase catalytic subunit alpha isoform (P42336 whole entry, canonical isoform): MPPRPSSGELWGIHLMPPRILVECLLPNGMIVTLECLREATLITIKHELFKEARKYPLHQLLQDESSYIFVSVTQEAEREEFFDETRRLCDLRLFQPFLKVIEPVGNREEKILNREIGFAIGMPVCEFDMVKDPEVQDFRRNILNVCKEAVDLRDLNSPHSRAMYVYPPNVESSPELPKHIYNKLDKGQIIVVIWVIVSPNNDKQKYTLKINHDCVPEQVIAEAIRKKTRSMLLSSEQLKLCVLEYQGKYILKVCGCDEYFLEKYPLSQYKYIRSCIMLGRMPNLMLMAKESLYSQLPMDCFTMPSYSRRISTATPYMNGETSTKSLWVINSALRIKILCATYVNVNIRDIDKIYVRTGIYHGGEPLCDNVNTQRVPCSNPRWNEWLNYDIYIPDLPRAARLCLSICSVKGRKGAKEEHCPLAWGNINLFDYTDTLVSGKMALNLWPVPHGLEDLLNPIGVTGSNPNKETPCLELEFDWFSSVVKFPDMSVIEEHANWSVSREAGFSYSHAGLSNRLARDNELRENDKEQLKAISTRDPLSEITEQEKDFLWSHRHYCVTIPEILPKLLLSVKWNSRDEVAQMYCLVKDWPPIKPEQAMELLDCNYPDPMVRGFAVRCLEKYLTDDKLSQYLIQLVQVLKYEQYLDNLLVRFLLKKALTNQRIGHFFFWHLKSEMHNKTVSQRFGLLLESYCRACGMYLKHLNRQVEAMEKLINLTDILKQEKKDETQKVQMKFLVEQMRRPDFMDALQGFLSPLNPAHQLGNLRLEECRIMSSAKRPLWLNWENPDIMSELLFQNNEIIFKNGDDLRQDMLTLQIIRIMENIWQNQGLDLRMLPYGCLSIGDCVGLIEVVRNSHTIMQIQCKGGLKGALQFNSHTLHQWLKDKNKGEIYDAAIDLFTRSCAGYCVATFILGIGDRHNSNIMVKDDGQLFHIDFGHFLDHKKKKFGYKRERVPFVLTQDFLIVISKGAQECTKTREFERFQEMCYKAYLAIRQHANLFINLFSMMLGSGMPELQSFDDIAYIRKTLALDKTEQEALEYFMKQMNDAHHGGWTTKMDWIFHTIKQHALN
Chain of Lysophosphatidic acid receptor 1 (Q92633 whole entry): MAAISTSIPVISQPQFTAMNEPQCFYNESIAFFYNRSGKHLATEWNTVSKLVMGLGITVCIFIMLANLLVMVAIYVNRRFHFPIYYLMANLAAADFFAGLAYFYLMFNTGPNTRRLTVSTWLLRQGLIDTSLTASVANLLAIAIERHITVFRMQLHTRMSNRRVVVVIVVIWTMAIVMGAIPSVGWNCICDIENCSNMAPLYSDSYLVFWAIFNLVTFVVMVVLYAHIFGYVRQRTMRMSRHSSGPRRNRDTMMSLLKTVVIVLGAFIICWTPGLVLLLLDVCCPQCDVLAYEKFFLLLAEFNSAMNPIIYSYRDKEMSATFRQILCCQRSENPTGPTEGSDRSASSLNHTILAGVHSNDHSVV
Chain of Voltage-gated inwardly rectifying potassium channel KCNH2 (Q12809 whole entry): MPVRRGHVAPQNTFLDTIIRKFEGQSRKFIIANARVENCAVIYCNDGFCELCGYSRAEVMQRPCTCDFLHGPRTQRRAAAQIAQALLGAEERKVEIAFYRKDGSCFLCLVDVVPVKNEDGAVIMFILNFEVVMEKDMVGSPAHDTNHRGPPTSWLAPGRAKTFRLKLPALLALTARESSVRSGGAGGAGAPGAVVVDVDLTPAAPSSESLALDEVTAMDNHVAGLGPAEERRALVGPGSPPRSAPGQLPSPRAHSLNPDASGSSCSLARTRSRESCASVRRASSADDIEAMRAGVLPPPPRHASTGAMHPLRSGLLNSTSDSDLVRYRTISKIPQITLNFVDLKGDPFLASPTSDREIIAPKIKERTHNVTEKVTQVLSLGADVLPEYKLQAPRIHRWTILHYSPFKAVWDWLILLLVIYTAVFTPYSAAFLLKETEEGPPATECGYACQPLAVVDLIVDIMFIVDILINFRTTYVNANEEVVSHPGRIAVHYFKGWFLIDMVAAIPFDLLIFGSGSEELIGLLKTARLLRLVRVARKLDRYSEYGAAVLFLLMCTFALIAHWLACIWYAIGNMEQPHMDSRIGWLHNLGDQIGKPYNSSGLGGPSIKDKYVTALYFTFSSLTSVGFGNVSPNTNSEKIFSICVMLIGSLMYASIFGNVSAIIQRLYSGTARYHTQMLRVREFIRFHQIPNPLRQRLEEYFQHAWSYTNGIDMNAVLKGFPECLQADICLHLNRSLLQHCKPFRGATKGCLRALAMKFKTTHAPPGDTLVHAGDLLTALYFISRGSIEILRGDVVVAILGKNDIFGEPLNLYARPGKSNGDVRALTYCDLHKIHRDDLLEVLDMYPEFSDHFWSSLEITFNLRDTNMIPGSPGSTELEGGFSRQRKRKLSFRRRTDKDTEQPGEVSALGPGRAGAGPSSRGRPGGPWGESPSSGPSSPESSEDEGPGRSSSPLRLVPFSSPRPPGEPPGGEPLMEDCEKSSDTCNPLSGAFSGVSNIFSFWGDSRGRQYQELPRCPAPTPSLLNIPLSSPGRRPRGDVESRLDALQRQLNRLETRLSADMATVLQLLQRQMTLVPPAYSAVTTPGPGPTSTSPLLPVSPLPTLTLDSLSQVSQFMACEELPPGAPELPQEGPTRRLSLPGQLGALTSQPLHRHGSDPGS

COC(=O)c1ccc2c(c1)NC(=O)/C2=C(\Nc1ccc(N(C)C(=O)CN2CCN(C)CC2)cc1)c1ccccc1 [NINTEDANIB]
pIC50 [1]: 5.59

O=c1nc(OC[C@@H]2COCCO2)cc2n1CCc1cc(C#CC3CC3)ccc1-2 [GLPG-1205]
clearance [2]: 15 mL/min/kg | half-life (in vivo): 1.9 h | bioavailability [3]: > 100%

CCc1nc2c(C)cc(N3CCN(CC(=O)N4CC(O)C4)CC3)cn2c1N(C)c1nc(-c2ccc(F)cc2)c(C#N)s1 [ZIRITAXESTAT]
clearance [4]: 11.5 mL/min/kg | bioavailability [5]: 34%

Cc1cc(NNC(=O)Nc2cc(Cl)nc(Cl)c2)ncc1-c1cn(C)nc1C
pIC50 [6]: < 5.85

O=C1NC(=O)C(Cc2ccc3nccc(-c4ccncc4)c3c2)S1 (stereo not given)
pIC50 [7]: 8.70

Cc1c(-c2ccccc2)nc2ccc(Br)cc2c1C(=O)NC[C@H](CC(=O)O)c1ccccc1Cl
pIC50 (fMet-Leu-Phe receptor): 7.49

O=S(=O)(Nc1cncc(-c2ccc3nccc(-c4ccncc4)c3c2)c1)c1ccccc1F
pIC50 [7]: 10.00

Cc1noc(-c2ccc(-c3ccc(C4(C(=O)O)CC4)cc3)cc2)c1NC(=O)O[C@H](C)c1ccccc1 [BMS-986020]
pEC50 [8]: 8.17

COc1cc2c(Oc3ccc4[nH]c(C)cc4c3F)ccnc2cc1OCC1(N)CC1
pIC50 [9]: > 9.00

CCCCOC(=O)NS(=O)(=O)c1sc(CC(C)C)cc1-c1ccc(Cn2c(CC)nc3c(C)cc(C)nc32)cc1
pKi [10]: 8.41

COC(=O)c1ccc2c(c1)NC(=O)/C2=C(\Nc1ccc2c(c1)CCN2C(=O)CN1CCOCC1)c1ccccc1
pIC50 [11]: 7.60 | half-life [12]: 4.8 h | half-life [13]: 4.8 h | pIC50 [9]: 6.96 | pIC50 [14]: 7.00 | AUC [15]: 6406 h/ng/mL

CNC(=O)c1cc2c(Oc3ccc(NC(=S)NC(=O)Cc4ccccc4)cc3F)ccnc2cc1OC [TAS-115]
pIC50 [16]: 8.15

Reference: ChEMBL document CHEMBL5537112, “Emerging opportunities to treat idiopathic pulmonary fibrosis: Design, discovery, and optimizations of small-molecule drugs targeting fibrogenic pathways” (Eur J Med Chem, 2023)
